Assay results as given in patent publication US20250002974A1, “PROTECTING FULLY FUNCTIONAL NUCLEOTIDES FROM DEGRADATION” (Illumina, Inc., priority 2023, published 2025).
Values belong to the molecule of their own block, whether it stands above or below them.

How the values were obtained:
[1] = lyophilized ffN cakes with 30 mM cationic additive staged at 60° C. for 3 days, diphosphate by HPLC; assay type: physicochemical; settings: 30 mM additive, 60° C. 3 days
Description: FIG. 12 provides data showing the percent diphosphate ffC detected via HLPC after staging for 60° C. for 3 days (3D) in the presence of 30 mM imidazolium additive (lyophilized cakes; n=2; CTRL=control sample with no additive).
FIG. 13 provides data showing the percent diphosphate ffC detected via HLPC after staging for 60° C. for 3 days (3D) in the presence of 30 mM pyridinium additives (lyophilized cakes; n=2; CTRL=control with no additive).
FIG. 14 provides data showing the percent diphosphate ffC detected via HLPC after staging for 60° C. for 3 days (3D) in the presence of 30 mM quaternary additives (lyophilized cakes; n=2; CTRL=control with no additive).
The efficacies of the other cationic substrates were also tested. This was performed using lyophilized ffN cake samples that were formulated with and without said additives, and by staging at an arbitrarily selected stress condition of 60° C. for a period of 3 days.

[2] = 1 to 40 mM TBACL; 45° C. 7 days; solution format
From the text: As such, even higher concentrations of cations were not pursued.

[3] = ffNs stored with TBMACL for 35 days at 35° C. or 45° C., diphosphate production; assay type: physicochemical
Description: TBMACL was tested to determine if it provided protection to the triphosphate of ffNs as heat stress increased. ffNs were stored with TBMACL for 35 days. In one of the storage conditions, the temperature was 35° C. and in the other storage condition, the temperature was 45° C. […] At 35° C. for 35 days TBMACL caused a 10% reduction in diphosphate production. This can be compared to 45° C. for 35 days where TBMACL caused a 17% reduction in diphosphate production.

[4] = stability of ffNs in dry state (TBMACL) or liquid state (CHAPS); assay type: physicochemical
From the text: FIG. 24 provides data showing that addition of the cationic compound Tributylmethylammonium chloride (TBMACL) to ffNs in a dry state increases stability of triphosphate on the ffNs.
FIG. 25 provides data showing that the addition of CHAPS as well as CHAPS and TBMACL to ffNs in a liquid state increases the stability of intact ffNs.

Arthrobacter russicus = assay: bacterial growth in incorporation mix with TBMACL titration, plating for CFU/ml; assay type: cell-based
Description: To confirm the biocidal effect of TBMACl within liquid sequencing reagents, a titration of TBMACL from 9 mM to 90 mM in incorporation mix was prepared. These experiments were carried out with the omission of polymerase and ffNs in the formulation, as they were not required for the further analysis. On day 0, samples were inoculated with 3×10^6 CFU/ml of the bacteria Arthrobacter russicus. The samples were staged at 12° C. for 0, 14 and 30 days, followed by plating to determine CFU/ml. FIGS. 26-27 provide data showing use of a bulky cationic compound to inhibit bacterial growth. More specifically, FIG. 26 illustrates A. russicus growth in a titration of TBMACL over 30 days at 12° C.; the data shown is on a linear Y axis. FIG. 27 illustrates the same data, with a logarithmic scale Y axis. It may be understood from FIGS. 26-27 that the greater the concentration of TBMACL, the greater the inhibition of bacterial growth. […] In the absence of TBMACL, the CFU/ml increase by about 1.8-fold over 30 days. […] The sample with 90 mM TBMACL appeared to kill essentially all bacteria by day 14, and all bacteria appeared to remain dead at day 30.

[5] = ffN stability staged with surfactants in solution, 45° C. 7 days; assay type: physicochemical; settings: 45° C. for 7 days, solution format
Description: Each of the surfactants was tested at two different concentrations, 0.5% and 2%.

[6] = ffNs stored with CHAPS at 45° C. for 7 or 21 days, percent peak area retention; assay type: physicochemical
Description: CHAPS was tested to determine if it prevented degradation of ffNs as the level of heat stress increased. In one of the reaction conditions ffNs were stored with CHAPS for 7 days at 45° C., and the other reaction condition ffNs were stored with CHAPs for 21 days at 45° C.

[7] = ffN stress test with or without 10 mM DADMAC, purity by HPLC peak area percent; assay type: physicochemical
Description: DADMAC (diallyldimethylammonium chloride): 100 μM ffNs were stressed in the presence of 10 mM DADMAC (FIG. 19) in 15 mM 3-(N-morpholino)propanesulfonic acid (MOPS) buffer and 5× glycine buffer (250 mM glycine pH 9.9, 250 mM NaCl, 5 mM ethylediaminetetraacetic acid (EDTA)). Each type of ffNs were tested: ffA, ffC, ffT, and ffG.
The samples were staged for 2 days at 40° C. in the glycine buffer, 2 days at 65° C. and 7 days at 4° C. in the MOPS buffer. DADMAC was tested to see if it could be added to the incorporation mix or ffN mixtures without causing any negative interactions with ffNs.

- reduction in diphosphate ffN formed vs control without additive [1]: approximately 17%
SMILES: CCCC[n+]1ccccc1.[Br-] [BPB, 1-butylpyridinium bromide]

SMILES: CCCC[N+](CCCC)(CCCC)CCCC.[Cl-] [TBACL, tetrabutylammonium chloride]
- dephosphorylation (percent diphosphate ffC) [2]: reduced dephosphorylation

SMILES: CC[n+]1ccc(C(=O)OC)cc1.[I-] [EMPI, 1-ethyl-4-(methoxycarbonyl)pyridinium iodide]
- effect on triphosphate stability / diphosphate formation [1]: negatively impacted triphosphate stability

- reduction in diphosphate ffN formed vs control without additive [1]: ≤ 23%
- reduction in diphosphate production ([3]; 35° C. for 35 days): 10%
- reduction in diphosphate production ([3]; 45° C. for 35 days): 17%
SMILES: CCCC[N+](C)(CCCC)CCCC.[Cl-] [TBMACL, tributylmethylammonium chloride]
- stability of triphosphate species of ffNs ([4]; ffNs in a dry state): increased stability of the trisphosphate species
- effect on bioburden load (CFU/ml) (Arthrobacter russicus; 9 mM TBMACL, 30 days at 12° C.): approximately static effect
- reduction of CFU/ml (Arthrobacter russicus; 22.5 mM TBMACL, 30 days at 12° C.): 6 fold
- reduction of CFU/ml (Arthrobacter russicus; 45 mM TBMACL, 30 days at 12° C.): 8.6 fold
- reduction of CFU/ml (Arthrobacter russicus; 90 mM TBMACL, 30 days at 12° C.): about 78,000 fold
- biocidal effect on bacterial growth (Arthrobacter russicus; titration 9 mM to 90 mM in incorporation mix): dose-dependent biocidal effect

SMILES: C[C@H](CCC(=O)NCCC[N+](C)(C)CCCS(=O)(=O)[O-])[C@H]1CC[C@H]2[C@@H]3[C@H](O)C[C@@H]4C[C@H](O)CC[C@]4(C)[C@H]3C[C@H](O)[C@]12C [CHAPS, 3-[(3-cholamidopropyl)dimethylammonio]-1-propanesulfonate]
- increase in ffN retention against the control sample [5]: ~40%
- improvement in percent peak area retention ([6]; 7 days at 45° C.): 27%
- improvement in percent PA retention ([6]; 21 days at 45° C.): 113%
- stability of triphosphate species of ffNs ([4]; ffNs in a liquid state): increased the stability of trisphosphate species

SMILES: C=CC[N+](C)(C)CC=C.[Cl-] [DADMAC, diallyldimethylammonium chloride]
- effect of DADMAC on ffN purity and diphosphate ([7]; high temperatures, all 4 ffNs): higher % ffN purity as compared to control and lower levels of diphosphate
- effect of DADMAC on ffNs ([7]; milder stress conditions): no negative effect

SMILES: Cl.N [ACL, ammonium chloride]
- effect on triphosphate stability / diphosphate formation [1]: higher level of diphosphate formation
